From PubChem BioAssay (NCI)
“And” between values parts separate entries of the source, which are not always exact repeats. Equal entries are not always repeated.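 Grown in 96-well plates, cells were treated for 48 hours with each compound at five concentrations. Insufficient inhibition: endpoint recorded as highest concentration tested. GI50 marks 50% less growth. TGI: concentration producing complete growth inhibition.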

Experiments:
Assay in all cases: DTP human tumour cell line panel, 48 h
[1] = test system: A498 renal
[2] = test system: ACHN renal
[3] = test system: EKVX NSCLC
[4] = test system: HL-60(TB) leukemia
[5] = test system: HOP-92 NSCLC
[6] = test system: M14 melanoma
[7] = test system: RPMI-8226 leukemia
[8] = test system: SK-OV-3 ovarian
[9] = test system: SNB-19 CNS
[10] = test system: SNB-75 CNS

| Structure (SMILES) | TGI [1] | TGI [2] | TGI [3] | TGI [4] | TGI [5] | TGI [6] | TGI [7] | TGI [8] | TGI [9] | TGI [10] | GI50 [1] | GI50 [2] | GI50 [3] | GI50 [4] | GI50 [5] | GI50 [6] | GI50 [7] | GI50 [8] | GI50 [9] | GI50 [10] |
| --- | --- | --- | --- | --- | --- | --- | --- | --- | --- | --- | --- | --- | --- | --- | --- | --- | --- | --- | --- | --- |
| Oc1cccc(-c2nc3ccccc3s2)c1 | > 100 µM | > 100 µM | 42.7 µM | > 100 µM | > 100 µM | 60.4 µM | > 100 µM | > 100 µM | > 100 µM | 61.8 µM | – | – | – | – | – | – | – | – | – | – |
| CC1Cc2c(N(C)C)ncnc2N(C)c2ccc(Cl)cc21 (configuration not stated) | 19.2 µM | > 100 µM | > 100 µM | 15.8 µM | 69.6 µM | > 100 µM | 17.3 µM | 72.1 µM | > 100 µM | 8.52 µM | 3.53 µM | 7.59 µM | 2.77 µM | 2.81 µM | 11 µM | 2.39 µM | 3.53 µM | 4.93 µM | 5.81 µM | 2.02 µM |
| Clc1ccc2c(Cl)ncnc2c1 | > 100 µM | > 100 µM | > 100 µM | > 100 µM | > 100 µM | > 100 µM | > 100 µM | > 100 µM | > 100 µM | > 100 µM | – | – | – | – | – | – | – | – | – | – |
| CCOP(=O)(OCC)/C(C#N)=C\c1cccc2ccccc12 | 98.7 µM | > 100 µM | > 100 µM | > 62.8 µM | 93.6 µM | > 100 µM | > 66.5 µM | > 100 µM | > 100 µM | 88.5 µM | – | – | – | – | – | – | – | – | – | – |
| CN1C(=O)c2cc(Cl)nc3c(NC(=O)c4cccc(Cl)c4)c(Cl)c(NC(=O)c4cccc(Cl)c4)c1c23 | 12.7 µM | 3.09 µM | 4.21 µM | 5.11 µM | 3.41 µM | 3.03 µM | 32.6 µM | 17.4 µM | 6.08 µM | 2.84 µM | 3.49 µM | 1.72 µM | 1.85 µM | 2.17 µM | 1.71 µM | 1.47 µM | 3.63 µM | 4.98 µM | 2.45 µM | 1.45 µM |
| Cn1c(=O)n(-c2ccc(C(C)(C)C#N)cc2)c2c3cc(-c4cnc5ccccc5c4)ccc3ncc21 | 0.007 µM and 0.0306 µM | > 100 µM | – | 2.4 µM and > 5.01 µM | 0.0622 µM and 0.122 µM and 0.0651 µM | – | 0.385 µM and 3.13 µM and 1.24 µM | 0.0442 µM and 0.0549 µM and 0.0293 µM | > 100 µM | 0.0464 µM and 0.0263 µM | < 0.01 µM and 0.00365 µM | < 0.0121 µM and 0.00573 µM and < 0.01 µM | 0.0152 µM and 0.00573 µM and < 0.012 µM | 0.0701 µM and 0.0705 µM and 0.0783 µM | < 0.01 µM and 0.00431 µM | 0.018 µM and 0.00656 µM and < 0.01 µM | < 0.0116 µM and 0.00603 µM and < 0.0114 µM | < 0.01 µM and 0.00494 µM | 0.012 µM and 0.00605 µM and 0.0102 µM | < 0.001 µM |
| c1ccc2c(c1)nc(NCCN1CCNCC1)c1c3ccccc3[nH]c21 | 3.27 µM | 2.38 µM | 4.38 µM | 1.36 µM | 2.62 µM | 2.81 µM | 0.399 µM | 8.53 µM | 3.15 µM | 2.86 µM | 1.56 µM | 0.369 µM | 0.742 µM | 0.308 µM | 0.43 µM | 1.24 µM | – | 2.16 µM | 0.381 µM | 1.44 µM |
| CC1CCC(O)C(C(O)CC2CC(=O)N(C)C(=O)C2)C1 (configuration not stated) | > 100 µM | > 100 µM | > 100 µM | > 100 µM | > 100 µM | > 100 µM | > 100 µM | > 100 µM | > 100 µM | > 100 µM | – | – | – | – | – | – | – | – | – | – |
| COc1ccc(S(=O)(=O)N/N=C/C(=O)O)cc1 | 1210 µM | 970 µM | > 1250 µM | 463 µM | 1110 µM | > 1250 µM | 887 µM | > 1250 µM | > 1250 µM | > 1250 µM | – | – | – | – | – | – | – | – | – | – |
| COc1cc2ccn3c4cc(OC)c(OC)cc4cc3c2cc1OC | > 100 µM | > 100 µM | > 100 µM | > 100 µM | > 100 µM | > 100 µM | > 100 µM | > 100 µM | > 100 µM | > 100 µM | – | – | – | – | – | – | – | – | – | – |
| CCOC(=O)c1[nH]c2c(c1C)-c1[nH]c(=O)c(S(=O)(=O)c3ccccc3)cc1SC2 | > 100 µM | > 100 µM | > 100 µM | > 100 µM | 61.1 µM | > 100 µM | > 100 µM | > 100 µM | > 100 µM | 86.6 µM | 1.68 µM | 47.3 µM | 38.8 µM | 23.2 µM | 0.504 µM | 38.8 µM | 44 µM | 56.6 µM | 81.1 µM | 24.8 µM |
| Cc1cc(CS(=O)(=O)/C=C/c2ccccc2[N+](=O)[O-])c(CS(=O)(=O)/C=C/c2ccccc2[N+](=O)[O-])cc1C | 70.9 µM | > 100 µM | > 100 µM | > 100 µM | 74.1 µM | > 100 µM | > 86 µM | 37.5 µM | > 83.1 µM | 32 µM | – | – | – | – | – | – | – | – | – | – |
| C/C(=C(/c1ccc(O)cc1)c1ccc(OCCN2CCCC2)cc1)c1ccccc1 | 8.49 µM | 16.3 µM | 11.5 µM | 4.97 µM | 7.34 µM | 4.08 µM | 6.72 µM | 13 µM | 8.1 µM | 15.7 µM | 1.67 µM | 4.28 µM | 2.46 µM | 2.04 µM | 2.24 µM | 1.88 µM | 2.4 µM | 3.25 µM | 2.95 µM | 3.07 µM |
| CC1(CC(=O)O)OC2CCCCCC2O1 (configuration not stated) (tested in a mixture with another compound) | > 100 µM | > 100 µM | > 100 µM | > 100 µM | > 100 µM | > 100 µM | > 100 µM | > 100 µM | > 100 µM | > 100 µM | – | – | – | – | – | – | – | – | – | – |
